# According to ChEMBL document CHEMBL5260813, “An overview on the recent developments of 1,2,4-triazine derivatives as anticancer compounds” (Eur J Med Chem, 2017):
# Columns and labels:
# KB = assay: Antiproliferative activity against human KB cells assessed as inhibition of cell growth under hypoxia condition; format: functional, cell-based
# [1] = Ratio of IC50 for antiproliferative activity against human HL-60 cells assessed as inhibition of cell growth under normoxia condition to IC50 for antiproliferative activity against human HL-60 cells assessed as inhibition of cell growth under hypoxia condition; format: functional
# [2] = Ratio of IC50 for antiproliferative activity against human Bel-7402 cells assessed as inhibition of cell growth under normoxia condition to IC50 for antiproliferative activity against human Bel-7402 cells assessed as inhibition of cell growth under hypoxia condition; format: functional
# [3] = Ratio of IC50 for antiproliferative activity against human Eca-109 cells assessed as inhibition of cell growth under normoxia condition to IC50 for antiproliferative activity against human Eca-109 cells assessed as inhibition of cell growth under hypoxia condition; format: functional
# [4] = Ratio of IC50 for antiproliferative activity against human MCF7 cells assessed as inhibition of cell growth under normoxia condition to IC50 for antiproliferative activity against human MCF7 cells assessed as inhibition of cell growth under hypoxia condition; format: functional
# [5] = Ratio of IC50 for antiproliferative activity against human PC-3 cells assessed as inhibition of cell growth under normoxia condition to IC50 for antiproliferative activity against human PC-3 cells assessed as inhibition of cell growth under hypoxia condition; format: functional
# MCF7 [6] = assay: Antiproliferative activity against human MCF7 cells assessed as inhibition of cell growth under hypoxic condition by MTT assay; format: functional, cell-based
# HCT-116 = assay: Antiproliferative activity against human HCT-116 cells assessed as inhibition of cell growth under hypoxic condition by MTT assay; format: functional, cell-based
# NCI-H460 = assay: Antiproliferative activity against human NCI-H460 cells assessed as inhibition of cell growth under hypoxic condition by MTT assay; format: functional, cell-based
# MCF7 [7] = assay: Antiproliferative activity against human MCF7 cells assessed as inhibition of cell growth measured after 72 hrs by fluorescence based assay; format: functional; settings: MCF7, 72 h
# K562 = assay: Antiproliferative activity against human K562 cells assessed as inhibition of cell growth measured after 72 hrs by fluorescence based assay; format: functional; settings: K562, 72 h
structure (smiles),measurement,setting,value
CCCOCNc1n[n+]([O-])c2ccccc2[n+]1[O-],IC50,KB,3740 nM
CCCCOCNc1n[n+]([O-])c2ccccc2[n+]1[O-],IC50,KB,2320 nM
CCCCCOCNc1n[n+]([O-])c2ccccc2[n+]1[O-],IC50,KB,2900 nM
CC(C)CCOCNc1n[n+]([O-])c2ccccc2[n+]1[O-],IC50,KB,2110 nM
[O-][n+]1nc(NCOC2CCCCC2)[n+]([O-])c2ccccc21,IC50,KB,1200 nM
CCCCCCCOCNc1n[n+]([O-])c2ccccc2[n+]1[O-],IC50,KB,3490 nM
[O-][n+]1nc(NCOCc2ccccc2)[n+]([O-])c2ccccc21,IC50,KB,4140 nM
[O-][n+]1nc(NCOCc2ccc(Cl)cc2)[n+]([O-])c2ccccc21,IC50,KB,2190 nM
CC(OCNc1n[n+]([O-])c2ccccc2[n+]1[O-])c1ccccc1 (configuration not stated),IC50,KB,2810 nM
O=[N+]([O-])c1cccc(COCNc2n[n+]([O-])c3ccccc3[n+]2[O-])c1,IC50,KB,3440 nM
CCCOCNc1n[n+]([O-])c2cc(OC)ccc2[n+]1[O-],IC50,KB,2540 nM
CCCCCOCNc1n[n+]([O-])c2cc(OC)ccc2[n+]1[O-],IC50,KB,2510 nM
COc1ccc2c(c1)[n+]([O-])nc(NCOCc1ccccc1)[n+]2[O-],IC50,KB,4470 nM
[O-][n+]1nc(NCc2ccccc2)[n+]([O-])c2ccccc21,Ratio IC50,[1],4.2
same,Ratio IC50,[2],2.8
same,Ratio IC50,[3],5.1
same,Ratio IC50,[4],1.9
same,Ratio IC50,[5],2.3
CCNc1n[n+]([O-])c2ccccc2[n+]1[O-],Ratio IC50,[1],1.6
same,Ratio IC50,[2],2.2
same,Ratio IC50,[3],5.4
same,Ratio IC50,[4],2.1
same,Ratio IC50,[5],4.4
CCNc1n[n+]([O-])c2cc(Cl)ccc2[n+]1[O-],Ratio IC50,[1],5.1
same,Ratio IC50,[2],2.4
same,Ratio IC50,[3],2.7
same,Ratio IC50,[4],3.84
CCNc1n[n+]([O-])c2cc(OC)ccc2[n+]1[O-],Ratio IC50,[2],1.07
same,Ratio IC50,[3],1.12
same,Ratio IC50,[5],1.2
[O-][n+]1nc(Nc2ccccc2)[n+]([O-])c2ccccc21,Ratio IC50,[1],2.5
same,Ratio IC50,[2],2
same,Ratio IC50,[3],4.1
same,Ratio IC50,[4],2.1
same,Ratio IC50,[5],2.3
[O-][n+]1nc(NC2CCCCC2)[n+]([O-])c2ccccc21,Ratio IC50,[1],4.1
same,Ratio IC50,[2],1.1
same,Ratio IC50,[3],2.8
same,Ratio IC50,[4],1.9
same,Ratio IC50,[5],1.5
O=C(NCCCCCNc1n[n+]([O-])c2ccccc2[n+]1[O-])C(F)(F)F,IC50,MCF7 [6],11.7 µM
same,IC50,HCT-116,11.7 µM
same,IC50,NCI-H460,11.7 µM
O=C(NCCCCNc1n[n+]([O-])c2ccccc2[n+]1[O-])C(F)(F)F,IC50,MCF7 [6],11.7 µM
same,IC50,HCT-116,11.7 µM
same,IC50,NCI-H460,11.7 µM
CCN(CC)c1nc(=O)n(-c2ccccc2)nc1-c1ccccc1O,IC50,MCF7 [7],3.5 µM
same,IC50,K562,3.5 µM
O=[N+]([O-])c1ccc2c(c1)[n+]([O-])nc(NC1CCCCC1)[n+]2[O-],Ratio IC50,[2],1.68
same,Ratio IC50,[3],1.6
same,Ratio IC50,[5],1.07
NC(CCCCNc1nc(=O)n(-c2ccccc2)nc1-c1ccccc1O)C(=O)O (configuration not stated),IC50,MCF7 [7],3.5 µM
same,IC50,K562,3.5 µM
Nc1nc(=O)n(-c2ccccc2)nc1-c1ccccc1O,IC50,MCF7 [7],3.5 µM
same,IC50,K562,3.5 µM
NCCCCNc1n[n+]([O-])c2ccccc2[n+]1[O-],IC50,MCF7 [6],11.7 µM
same,IC50,HCT-116,11.7 µM
same,IC50,NCI-H460,11.7 µM
NCCCCNc1nc(=O)n(-c2ccccc2)nc1-c1ccccc1O,IC50,MCF7 [7],3.5 µM
same,IC50,K562,3.5 µM
O=C(NCCCNc1n[n+]([O-])c2ccccc2[n+]1[O-])C(F)(F)F,IC50,MCF7 [6],11.7 µM
same,IC50,HCT-116,11.7 µM
same,IC50,NCI-H460,11.7 µM
[O-][n+]1nc(NCCNc2n[n+]([O-])c3ccccc3[n+]2[O-])nc2ccccc21,IC50,MCF7 [6],11.7 µM
same,IC50,HCT-116,11.7 µM
same,IC50,NCI-H460,11.7 µM
Cc1ccc2c(c1)[n+]([O-])nc(Nc1ccccc1)[n+]2[O-],Ratio IC50,[1],1.01
same,Ratio IC50,[2],2.07
same,Ratio IC50,[3],5.31
same,Ratio IC50,[4],2.19
same,Ratio IC50,[5],1.2
O=c1nc(N2CCCCC2)c(-c2ccccc2O)nn1-c1ccccc1,IC50,MCF7 [7],3.5 µM
same,IC50,K562,3.5 µM
O=[N+]([O-])c1ccc2c(c1)[n+]([O-])nc(Nc1ccccc1)[n+]2[O-],Ratio IC50,[2],1.44
same,Ratio IC50,[3],1.47
same,Ratio IC50,[4],1.61
NCCCCCCCNc1n[n+]([O-])c2ccccc2[n+]1[O-],IC50,MCF7 [6],11.7 µM
same,IC50,HCT-116,11.7 µM
same,IC50,NCI-H460,11.7 µM
NCCNc1n[n+]([O-])c2ccccc2[n+]1[O-],IC50,MCF7 [6],11.7 µM
same,IC50,HCT-116,11.7 µM
same,IC50,NCI-H460,11.7 µM
O=C(NCCCCCCCCNc1n[n+]([O-])c2ccccc2[n+]1[O-])C(F)(F)F,IC50,MCF7 [6],11.7 µM
same,IC50,HCT-116,11.7 µM
same,IC50,NCI-H460,11.7 µM
NCCCCCNc1n[n+]([O-])c2ccccc2[n+]1[O-],IC50,MCF7 [6],11.7 µM
same,IC50,HCT-116,11.7 µM
same,IC50,NCI-H460,11.7 µM
O=C(NCCCCCCNc1n[n+]([O-])c2ccccc2[n+]1[O-])C(F)(F)F,IC50,MCF7 [6],11.7 µM
same,IC50,HCT-116,11.7 µM
same,IC50,NCI-H460,11.7 µM
CNc1nc(=O)n(-c2ccccc2)nc1-c1ccccc1O,IC50,MCF7 [7],3.5 µM
same,IC50,K562,3.5 µM
O=c1nc(NC2CCCCC2)c(-c2ccccc2O)nn1-c1ccccc1,IC50,MCF7 [7],3.5 µM
same,IC50,K562,3.5 µM
[O-][n+]1nc(NCCCNc2n[n+]([O-])c3ccccc3[n+]2[O-])nc2ccccc21,IC50,MCF7 [6],11.7 µM
same,IC50,HCT-116,11.7 µM
same,IC50,NCI-H460,11.7 µM
COc1ccc2c(c1)[n+]([O-])nc(NCC1CCCCC1)[n+]2[O-],Ratio IC50,[1],2.4
same,Ratio IC50,[2],2
same,Ratio IC50,[3],1.3
same,Ratio IC50,[4],2.4
same,Ratio IC50,[5],1
CCNc1n[n+]([O-])c2cc(C)ccc2[n+]1[O-],Ratio IC50,[1],1
same,Ratio IC50,[2],1.74
same,Ratio IC50,[3],1.4
same,Ratio IC50,[4],2.7
same,Ratio IC50,[5],2.1
CCCCCCNc1n[n+]([O-])c2ccccc2[n+]1[O-],Ratio IC50,[1],2.8
same,Ratio IC50,[3],1.7
same,Ratio IC50,[4],1.3
same,Ratio IC50,[5],1.19
NCCCCCCCCNc1n[n+]([O-])c2ccccc2[n+]1[O-],IC50,MCF7 [6],11.7 µM
same,IC50,HCT-116,11.7 µM
same,IC50,NCI-H460,11.7 µM
O=c1nc(Nc2ccccc2)c(-c2ccccc2O)nn1-c1ccccc1,IC50,MCF7 [7],3.5 µM
same,IC50,K562,3.5 µM
NCCCNc1n[n+]([O-])c2ccccc2[n+]1[O-],IC50,MCF7 [6],11.7 µM
same,IC50,HCT-116,11.7 µM
same,IC50,NCI-H460,11.7 µM
Cc1ccc2c(c1)[n+]([O-])nc(NCc1ccccc1)[n+]2[O-],Ratio IC50,[1],1.21
same,Ratio IC50,[2],2.54
same,Ratio IC50,[3],8.77
same,Ratio IC50,[4],3.79
same,Ratio IC50,[5],2.4
O=c1nc(NCCCCCCNc2nc(=O)n(-c3ccccc3)nc2-c2c(O)ccc3ccccc23)c(-c2c(O)ccc3ccccc23)nn1-c1ccccc1,IC50,MCF7 [7],3.5 µM
same,IC50,K562,3.5 µM
COc1ccc2c(c1)[n+]([O-])nc(NC1CCCCC1)[n+]2[O-],Ratio IC50,[1],2.2
same,Ratio IC50,[2],1.6
same,Ratio IC50,[3],2
same,Ratio IC50,[4],2.8
CCCCCCNc1n[n+]([O-])c2cc(C)ccc2[n+]1[O-],Ratio IC50,[1],2.9
same,Ratio IC50,[3],4.7
same,Ratio IC50,[4],1.3
same,Ratio IC50,[5],1.3
NNc1nc(=O)n(-c2ccccc2)nc1-c1ccccc1O,IC50,MCF7 [7],3.5 µM
same,IC50,K562,3.5 µM
O=c1nc(NCCCCCN(CCCNc2nc(=O)n(-c3ccccc3)nc2-c2ccccc2O)c2nc(=O)n(-c3ccccc3)nc2-c2ccccc2O)c(-c2ccccc2O)nn1-c1ccccc1,IC50,MCF7 [7],3.5 µM
same,IC50,K562,3.5 µM
CCCCCCNc1n[n+]([O-])c2cc(Cl)ccc2[n+]1[O-],Ratio IC50,[1],4
same,Ratio IC50,[2],1.6
same,Ratio IC50,[3],2.6
same,Ratio IC50,[4],2.1
same,Ratio IC50,[5],1.4
NCCNc1nc(=O)n(-c2ccccc2)nc1-c1ccccc1O,IC50,MCF7 [7],3.5 µM
same,IC50,K562,3.5 µM
O=[N+]([O-])c1ccc2c(c1)[n+]([O-])nc(NCc1ccccc1)[n+]2[O-],Ratio IC50,[1],1.09
same,Ratio IC50,[2],1.17
same,Ratio IC50,[3],1.45
same,Ratio IC50,[4],1.2
same,Ratio IC50,[5],1.89
NCCCCCCNc1n[n+]([O-])c2ccccc2[n+]1[O-],IC50,MCF7 [6],11.7 µM
same,IC50,HCT-116,11.7 µM
same,IC50,NCI-H460,11.7 µM
O=c1nc(NNc2ccccc2)c(-c2ccccc2O)nn1-c1ccccc1,IC50,MCF7 [7],3.5 µM
same,IC50,K562,3.5 µM
O=C(NCCCCCCCNc1n[n+]([O-])c2ccccc2[n+]1[O-])C(F)(F)F,IC50,MCF7 [6],11.7 µM
same,IC50,HCT-116,11.7 µM
same,IC50,NCI-H460,11.7 µM
Cc1ccc2c(c1)[n+]([O-])nc(NC1CCCCC1)[n+]2[O-],Ratio IC50,[1],7.9
same,Ratio IC50,[2],1.1
same,Ratio IC50,[3],2.5
same,Ratio IC50,[4],2
same,Ratio IC50,[5],1.2
CCCCCCNc1n[n+]([O-])c2cc([N+](=O)[O-])ccc2[n+]1[O-],Ratio IC50,[2],1.5
same,Ratio IC50,[3],1.5
same,Ratio IC50,[5],1.6
NC(=O)NNc1nc(=O)n(-c2ccccc2)nc1-c1ccccc1O,IC50,MCF7 [7],3.5 µM
same,IC50,K562,3.5 µM
O=C(NCCNc1n[n+]([O-])c2ccccc2[n+]1[O-])C(F)(F)F,IC50,MCF7 [6],11.7 µM
same,IC50,HCT-116,11.7 µM
same,IC50,NCI-H460,11.7 µM
Nc1n[n+]([O-])c2ccccc2[n+]1[O-] [TIRAPAZAMINE],Ratio IC50,[1],1.1
same,Ratio IC50,[2],1.8
same,Ratio IC50,[3],6.6
same,Ratio IC50,[4],1.7
same,Ratio IC50,[5],3.8
